Data: patent publication US5852011A, “Benzimidazole derivatives” (Mitsui Chemicals, Inc., priority 1994, dated 1998)
Where a name gives a salt, the structure may show the parent alone. Read-outs that look alike come from different tables or passages of the source.

System: mouse B16 melanoma cells
Experiment: In vitro inhibition of proliferation of tumored cells, mouse B16 melanoma (Test 2)
Assay type: cell-based
Details: for IC50: Mus musculus, B16, 72 h, read-out: 50% Inhibition
Description: A description will next be made of antitumor activities of these compounds. Their antitumor activities were determined by measuring their in vitro inhibition of proliferation of tumored cells. Namely, mouse B16 melanoma cells were spread over a 96-well culture plate. One day later, each drug was applied. The melanoma cells were then incubated for 3 days in 5% CO2 at 37° C. Following the method reported in Cancer Res., 48, 589-601(1988), the concentration of the drug required to induce 50% inhibition on the proliferation was determined. As a comparative example, the results obtained from the application of distamycin are also shown.

[1] = 3 days in 5% CO2 at 37° C., 96-well plate

| SMILES | 50% Inhibition [1] [µg/mL] | also measured |
| --- | --- | --- |
| Cn1cc(NC(=O)CC[S+](C)C)cc1-c1nc2cc(C(=O)Nc3ccc(N(CCCl)CCCl)c(F)c3)ccc2[nH]1 [1076 (Cl' salt), 2-[N-[1-Methyl-2-[5-[N-[3-fluoro-4-[N,N-bis(2-chloroethyl)amino]phenyl]]carbamoyl]-1H-benzimidazol-2-ylpyrrol-4-yl]carbamoylethyl-dimethylsulfonium chloride] | 0.45 | – |
| Cn1cc(NC(=O)CCc2ccc(N(CCCl)CCCl)cc2)cc1-c1nc2cc(C(=O)NCCC(=N)N)ccc2[nH]1 [Compound 3, 1H-2-[4-[3-[4-[N,N-Bis(2-chloroethyl)amino]phenyl]propionylamino]-1-methylpyrrol-2-yl]benzimidazole-5-[N-(2-amidinoethyl)]carboxamide hydrochloride] | 0.019 | – |
| Cn1cc(NC(=O)c2ccc(CN(CCCl)CCCl)cc2)cc1-c1nc2cc(C(=O)NCCC(=N)N)ccc2[nH]1 [Compound 14, 1H-2-[4-[4-[N,N-Bis(2-chloroethyl)aminomethyl]benzoylamino]-1-methylpyrrol-2-yl]benzimidazole-5-(N-(2-amidinoethyl)]carboxamide hydrochloride] | 0.57 | – |
| Cn1cc(NC(=O)c2cccc(N(CCCl)CCCl)c2)cc1-c1nc2cc(C(=O)NCCC(=N)N)ccc2[nH]1 [Compound 15, 1H-2-[4-[3-[N,N-bis(2-chloroethyl)amino]benzoylamino]-1-methylpyrrol-2-yl]benzimidazole-5-[N-(2-amidinoethyl)]carboxamide hydrochloride] | 0.057 | – |
| Cn1cc(NC(=O)CCCCCBr)cc1-c1nc2cc(C(=O)NCCC(=N)N)ccc2[nH]1 [Compound 16, hydrochloride] | – | IC50 [1]: 0.6 µg/mL |
| Cn1cc(NC(=O)c2ccc(N(CCCl)CCCl)cc2)cc1-c1nc2cc(C(=O)NCCN)ccc2[nH]1 [Compound 129, 1H-2-[4-[4-[N,N-Bis(2-chloroethyl)amino]benzoylamino]-1-methylpyrrol-2-yl]benzimidazole-5-[N-(2-aminoethyl)]carboxamide hydrochloride] | 0.18 | – |
| Cn1cc(NC(=O)c2ccc(N(CCCl)CCCl)cc2)cc1-c1nc2cc(C(=O)NCc3cccnc3)ccc2[nH]1 [Compound 223, 1H-2-[4-[4-[N,N-Bis(2-chloroethyl)amino]benzoylamino]-1-methylpyrrol-2-yl]benzimidazole-5-[N-(3-picolyl)]carboxamide hydrochloride] | 1.1 | – |
| Cn1cc(NC(=O)c2ccc(N(CCCl)CCCl)cc2)cc1-c1nc2cc(C(=O)NCc3ccc[n+](C)c3)ccc2[nH]1 [Compound 247, 3-[[1H-2-[4-[4-[N,N-Bis(2-chloroethyl)amino]-benzoylamino]-1-methylpyrrol-2-yl]benzimidazole-5-carboxamido]methyl]-1-methylpyridinium chloride] | 2.6 | – |
| Cn1cc(NC(=O)c2ccc(N(CCBr)CCBr)cc2)cc1-c1nc2cc(C(=O)NCCC(=N)N)ccc2[nH]1 [Compound 260, 1H-2-[4-[4-[N,N-Bis(2-bromoethyl)amino]benzoylamino]-1-methylpyrrol-2-yl]benzimidazole-5-[N-(2-amidinoethyl)]carboxamide hydrochloride] | 0.034 | – |
| Cn1cc(NC(=O)c2ccccc2)cc1-c1nc2cc(C(=O)NCCC(=N)N)ccc2[nH]1 [Compound 326, 1H-2-(4-Benzoylamino-1-methylpyrrol-2-yl)benzimidazole-5-[N-(2-amidinoethyl)]carboxamide hydrochloride] | – | IC50 [1]: 12 µg/mL |
| CCCCNC(=O)c1ccc2[nH]c(-c3cc(NC(=O)c4ccc(N(CCCl)CCCl)cc4)cn3C)nc2c1 [Compound 336, 1H-2-[4-[4-[N,N-Bis(2-chloroethyl)amino]benzoylamino]-1-methylpyrrol-2-yl]benzimidazole-5-(N-butyl)carboxamide] | 0.24 | – |
| N=C(N)CCNC(=O)c1ccc2[nH]c(-c3csc(NC(=O)CCCc4ccc(N(CCCl)CCCl)cc4)c3)nc2c1 [Compound 424, 1H-2-[2-[4-[4-[N,N-Bis(2-chloroethyl)amino]phenyl]butyrylamino]thiophen-4-yl]benzimidazole-5-[N-(2-amidinoethyl)]carboxamide hydrochloride] | 0.08 | – |
| N=C(N)CCNC(=O)c1ccc2[nH]c(-c3csc(NC(=O)c4ccccc4)c3)nc2c1 [Compound 438, 1H-2-(2-Benzoylaminothiophen-4-yl)benzimidazole-5-[N-(2-amidinoethyl)]carboxamide hydrochloride] | – | IC50 [1]: 42.8 µg/mL |
| Cn1cc(NC(=O)CNC(=N)N)cc1-c1nc2cc(C(=O)NCCCc3ccc(N(CCCl)CCCl)cc3)ccc2[nH]1 [Compound 1004, 1H-2-[4-(2-Guanidinoacetylamino)-1-methylpyrrol-2-yl]benzimidazole-5-[N-[3-[4-[N,N-bis(2-chloroethyl)amino]phenyl]propyl]]carboxamide hydrochloride] | 0.047 | – |
| CN(C)CCNC(=O)c1cc(N(CCCl)CCCl)ccc1NC(=O)c1ccc2[nH]c(-c3cc(NC(=O)CNC(=N)N)cn3C)nc2c1 [Compound 1042, 1H-2-[1-Methyl-4-(guanidinoacetylamino)pyrrol-2-yl]benzimidazole-5-[N-[2-[N-[(N,N-dimethylamino)ethyl]carboxamido]-4-[N,N-bis(2-chloroethyl)amino]phenyl]]carboxamide dihydrochloride] | 3.49 | – |
| Cn1cc(NC(=O)CNC(=N)N)cc1-c1nc2cc(C(=O)Nc3cccc(N(CCCl)CCCl)c3)ccc2[nH]1 [Compound 1047, 1H-2-[1-Methyl-4-(guanidinoacetylamino)pyrrol-2-yl]benzimidazole-5-[N-[3-[N,N-bis(2-chloroethyl)amino]phenyl]]carboxamide dihydrochloride] | 0.0946 | – |
| CCN(CCCl)c1ccc(NC(=O)c2ccc3[nH]c(-c4cc(NC(=O)CNC(=N)N)cn4C)nc3c2)cc1 [Compound 1048, 1H-2-[1-Methyl-4-(2-guanidinoacetylamino)pyrrol-2-yl]benzimidazol-5-[N-[4-[N-ethyl,N-(2-chloroethyl)amino]phenyl]]carboxamide dihydrochloride] | – | IC50: 5.58 µg/mL |
| CCN(CCCl)c1cccc(NC(=O)c2ccc3[nH]c(-c4cc(NC(=O)CNC(=N)N)cn4C)nc3c2)c1 [Compound 1049, 1H-2-[1-Methyl-4-(guanidinoacetylamino)pyrrol-2-yl]benzimidazol-5-[N-[3-[N-ethyl,N-(2-chloroethyl)amino]phenyl]]carboxamide hydrochloride] | – | IC50: 0.274 µg/mL |
| Cn1cc(NC(=O)CC[S+](C)C)cc1-c1nc2cc(C(=O)Nc3ccc(N(CCCl)CCCl)c(Cl)c3)ccc2[nH]1 [Compound 1072, 2-[N-[1-Methyl-2-[5-[N-[3-chloro-4-[N,N-bis(2-chloroethyl)amino]phenyl]]carbamoyl]-1H-benzimidazol-2-yl]pyrrol-4-yl]carbamoylethyl-dimethylsulfonium chloride] | 0.51 | – |
| Cn1cc(NC(=O)CC[S+](C)C)cc1-c1nc2cc(C(=O)Nc3ccc(N(CCCl)CCCl)c(C(F)(F)F)c3)ccc2[nH]1 [Compound 1077, 2-[N-[1-Methyl-2-[5-[N-[3-trifluoromethyl-4-[N,N-bis(2-chloroethyl)amino]phenyl]]carbamoyl]-1H-benzimidazol-2-yl]pyrrol-4-yl]carbamoylethyl-dimethylsulfonium chloride] | 0.29 | – |
| Cc1cc(NC(=O)c2ccc3[nH]c(-c4cc(NC(=O)CCCN(C)C)cn4C)nc3c2)ccc1N(CCCl)CCCl [Compound 1260, 1H-2-[1-Methyl-4-[4-(N,N-dimethylamino)butyrylamino]pyrrol-2-yl]benzimidazole-5-[N-[3-methyl-4-[N,N-bis(2-chloroethyl)amino]phenyl]]carboxamide dihydrochloride] | 3.1 | – |
| Cn1cc(NC(=O)c2ccc[nH]2)cc1-c1nc2cc(C(=O)Nc3ccc(N(CCCl)CCCl)cc3)ccc2[nH]1 [Compound 1480, 1H-2-[1-Methyl-4-(2-pyrrolcarboxamido)pyrrol-2-yl]benzimidazole-5-[N-[4-[N,N-bis(2-chloroethyl)amino]phenyl]]carboxamide hydrochloride] | 0.16 | – |
| Cn1cc(NC(=O)CCCN)cc1-c1nc2cc(C(=O)Nc3ccc(N(CCCl)CCCl)cc3)ccc2[nH]1 [Compound 1488, 1H-2-[4-(4-aminobuturylamino)-1-methylpyrrol-2-yl]benzimidazole-5-[N-[4-[N,N-bis(2-chloroethyl)amino]phenyl]]carboxamide] | 2.85 | – |
| CSCCC(=O)Nc1cc(-c2nc3cc(C(=O)Nc4ccc(N(CCCl)CCCl)cc4)ccc3[nH]2)n(C)c1 [Compound 1520, 1H-2-[1-Methyl-4-[3-(methylthio)propionylamino]pyrrol-2-yl]benzimidazole-5-[N-[4-[N,N-bis(2-chloroethyl)amino]phenyl]]carboxamide] | 0.33 | – |
| CSCCC(=O)Nc1cc(-c2nc3cc(C(=O)Nc4ccc(N(CCCl)CCCl)c(C)c4)ccc3[nH]2)n(C)c1 [Compound 1524, 1H-2-[1-Methyl-4-[3-(methylthio)propionylamino]pyrrol-2-yl]benzimidazole-5-[N-[3-methyl-4-[N,N-bis(2-chloroethyl)amino]phenyl]]carboxamide] | 0.6 | – |
| CSCCC(=O)Nc1cc(-c2nc3cc(C(=O)Nc4ccc(N(CCCl)CCCl)c(F)c4)ccc3[nH]2)n(C)c1 [Compound 1528, 1H-2-[1-Methyl-4-[3-(methylthio)propionylamino]pyrrol-2-yl]benzimidazole-5-[N-[3-fluoro-4-[N,N-bis(2-chloroethyl)amino]phenyl]]carboxamide] | 0.22 | – |
